Assay results from patent US7645595B2, “Method of production of artificial skin” (Shiseido Company, Ltd., priority 2000, dated 2010).

How the values were obtained:
[1] = tested on: artificial skin (skin model: contracted collagen gel with human dermal fibroblasts plus epidermal keratinocytes); test: Artificial skin culture with matrix metalloproteinase inhibitor: basement membrane formation seen in cross-section (Example 1, FIG. 1); type: cell-based; settings: cultured 2 weeks, versus control without inhibitor
Method: Collagen gel was obtained by preparing 10 ml of a collagen solution of suspended fibroblasts (0.3 to 1×10^5 cells/ml) originating in human dermis (product I-AC of Koken Co., Ltd. was used for the collagen) on ice followed by gelling the collagen at 37° C. in a 60 mm Petri dish. Next, the gel was peeled from the walls of the Petri dish and the collagen gel was contracted in a CO2 incubator.
This contracted collagen gel equivalent to dermis was placed on a metal mesh and a glass ring (inner diameter: 12 mm) was placed over this gel. 0.4 ml of a suspension of epidermal keratinocytes (1×10^6/ml) (mixed medium of KGM-DMEM containing 5% fetal calf serum (1:1)) were placed inside the glass ring to prevent leakage of liquid. After adhering keratinocytes in a CO2 incubator overnight, the ring was removed on the following day.
After inoculating the epidermic cells, the medium was changed to that containing either (1) 10 μM CGS27023A (matrix metalloproteinase inhibitor) or (2) 300 μM MMP-inhibitor (p-NH2-Bz-Gly-Pro-D-Leu-D-Ala-NHOH (FN-437) (BBRC, 1994, 199, p. 1442-1446) (acquired from Cabbiochem. Novabiochem Corporation) (matrix metalloproteinase inhibitor)) starting in the first week, and then replaced with medium containing the same type and same concentration of matrix metalloproteinase inhibitor every 2-3 days after that and cultured for 2 weeks. […]

[2] = tested on: Skin Model (artificial skin); basement membrane components laminin 5, type IV collagen, type VII collagen; test: Artificial skin culture with MMP inhibitor and matrix protein production promoting agent: H&E staining and immunostaining for LN5, IVC, VIIC (Example 2, Table 1, FIG. 2-4); type: cell-based, human; settings: CGS27023A 10 μM, TGFa/TGFb1 10 ng/ml, versus control
Method: Although the same method as Example 1 was repeated, the following substances were used as test substances. • (1) 10 μM matrix metalloproteinase inhibitor CGS27023A only; • (2) 10 μM matrix metalloproteinase inhibitor CGS27023A and 10 ng/ml of matrix […] protein production promoting agent, Transforming Growth Factor α (TGFa); • (3) 10 μM matrix metalloproteinase inhibitor CGS27023A and 10 ng/ml of matrix protein production promoting agent, Transforming Growth Factor β1 (TGFb1); • (4) 10 μM matrix metalloproteinase inhibitor CGS27023A, 10 ng/ml of matrix protein production promoting agent, Transforming Growth Factor α (TGFa) and 10 ng/ml of Transforming Growth Factor β1 (TGFb1); and • (5) culturing of a control to which none of the above were added. The formed artificial skin was stained by hematoxylin-eosin (H & E) and immunostaining (using anti-laminin 5 (LN5) antibody, anti-type IV collagen (IVC) antibody, and anti-type VII collagen (VIIC) antibody). Culturing was carried out in the same manner as above using the following plant extracts instead of the above matrix metalloproteinase inhibitor CGS27023A.

## COc1ccc(S(=O)(=O)N(Cc2cccnc2)[C@@H](C(=O)NO)C(C)C)cc1.Cl [CGS27023A, N-hydroxy-2(R)-[[(4-methoxyphenyl)sulfonyl](3-picolyl)amino]-3-methylbutanamide hydrochloride]
[1]; 10 μM in medium
  Promotion of basement membrane formation (FIG. 1): promotion of basement membrane formation was clearly observed
[2]
  Adhesion between epidermis and dermis: adhesion between the epidermis and dermis was clear

## p-NH2-Bz-Gly-Pro-D-Leu-Ala-NHOH [MMP-inhibitor]
[1]; 300 μM in medium
  Promotion of basement membrane formation (FIG. 1): promotion of basement membrane formation was clearly observed
